Experiments:
[1] = Body weight in C57BL/KsJ-db/db diabetic mice; format: in vivo; details: 2 mg/kg/3 days i.p. for 30 days, compared with control group, after week 2
Experimental: Male C57BL/KsJ-db/db mice (diabetic deficiency knockout mice) at 5 weeks of age (23 g) were fed a pelletized commercial chow diet for acclimation from the arrival for 2 weeks. […]. They were given free access to food and distilled water, and the food consumption and body weight gain were measured daily and weekly, respectively. […]; and (2) group 2 served as diabetic mice administered C70PLY4 (2 mg/kg/3 days) in aqueous suspension i.p. for 30 days (C70PLY4). […] The blood was centrifuged at 1000 g for 15 min at 4° C., and plasma and erythrocyte were separated. The livers and adipose tissues were removed, washed, weighted, and frozen at −70° C. until analyzed.

[2] = system: neointima formation of aorta; experiment: Neointima formation of aorta (HE stain) in STZ-treated HFD-fed rats; format: in vivo
Experimental: The ascending part of aorta were taken from mice, including control health mice and HFD induced diabetic mice, with and without treatment of C70PLY4, and kept in 10% formalin buffered for 24 h. The specimens were routinely embedded in paraffin blocks and cut in transversal sections (3 μm). The slides were stained with hematoxylin and eosin. The specimens were analyzed with light microscope.
The present study determined if C70PLY4 attenuates the status of atherosclerosis in HFD-fed rats.

TLR4 = experiment: LPS-induced PMN transendothelial migration, PMNs from wild type C3H/HeN mice; format: cell-based
Experimental: To obtain mice neutrophils from TLR4-deficient [TLR4(−/−)] C3H/HeJ mice and wild type C3H/HeN mice, inflammation was induced by 0.1 ml of uric acid solution into the peritoneal cavity of the mouse. The uric acid solution (noncrystalline form) was prepared by mixing with saline (10% [wt/vol]) and sonicated for 10 min. Immediately before inoculation, the milky white precipitated uric acid solution was shaken vigorously. Peritoneal exudate cells were harvested 4, 18, or 24 h after injection by two lavages of the peritoneal cavity with 5 ml of cold phosphate-buffered saline (PBS; total volume, 10 ml). Uric acid-induced peritoneal cells (UAPMN) were washed by centrifugation at 200×g for 10 min at 4° C. Followed by hypotonic lysis to eliminate red blood cells, centrifugation and an additional wash were performed. The cells were then resuspended in Krebs-Ringer phosphate buffer (KRG; pH 7.3). The numbers and populations of peritoneal exudate cells were determined by staining the nuclei with Turk reagent and by cytospin centrifugation followed by May-Grünwald-Giemsa staining, respectively. Uric acid injection into the peritoneal cavity gave a yield of 1 to 2×10^7 cells/mouse depending on time of incubation (4 hr). The levels of purity of the uric acid-induced PMN were 95% after 4 h postinjection. Viability of the isolated neutrophils exceeded 95% as determined by trypan blue exclusion. The PMN from TLR4(−/−) C3H/HeJ mice and wild type C3H/HeN mice were then used for PMN transmigration Assay.
Neutrophils from human were isolated blood that was drawn in a syringe containing preservative-free heparin (20 U/ml final), and mixed with an equal volume of PBS containing 3% dextran and then incubated for 20 min at room temperature. The leukocyte-rich plasma (upper layer) was collected and pellet cells was obtained from the plasma by centrifuge and resuspended in 0.9% NaCl. Layer 10 ml Ficoll-Hypaque solution beneath the cell suspension. After centrifuge 1500×g for 20 min, aspirate the Ficoll-Hypaque layer, leaving the neutrophil/RBC pellet. Cells were subjected to hypotonic lysis by resuspending each neutrophil/RBC pellet in cold 0.2% NaCl for 30 sec. At the end of this period, restore isotonicity by adding ice-cold 1.6% NaCl. After centrifuge, resuspend cells in ice-cold PBS/glucose buffer. Neutrophils from mice were isolated from the peritoneum as previously described. See, e.g., Rabes et al., Curr Top Microbiol Immunol 397:215-227 (2016). The cell concentration was adjusted to […]. The viability of the isolated neutrophils exceeded 95%, as determined by Trypan blue exclusion.
Transendothelial migration was performed by using a Transwell system. Transwell filters were pre-seeded with HUVEC monolayers for 24 hrs and transferred to clean 24-well plates. HUVECs were washed twice with DPBS, 500 μl of ECM was added to the Transwell filter compartment and 10^6 neutrophils were then added in upper chamber. Transendothelial migration was stimulated by addition of LPS to the lower chamber to a final concentration of 1 μg/ml. Cells were incubated with the endothelial cells for 1 h at 37° C. At the conclusion of the incubation, migrated cells were collected from the lower chamber and counted in a hemacytometer in triplicate. Percent PMN transmigration was calculated by dividing the number of PMN recovered from the lower chamber by the number of PMN initially added.
PMN transendothelial migration plays an important role in early stage of atherogenesis. […].

MD2/TLR4 interaction = MD2/TLR4 interaction (Homo sapiens, UniProt O00206); experiment: In vitro protein competition binding assay for MD2/TLR4 interaction; details: MD2 50 nM
Experimental: The recombinant TLR4 protein was diluted in PBS (2 μg/mL) and immobilized on a 96-well (100 ng/well) ELISA plate by incubation at 37° C. for 2 h. The wells were washed three times with PBS, followed by blocking with the addition of 300 μL 5% BSA in PBS at ambient temperature overnight. Then, the plate was rewashed three times with PBST before performed competition binding assay. The binding of MD2 (50 nM) to TLR4 was competed by adding various amounts (2-fold serial dilution from 50 μM to 3.05 nM) of C70PLY4, N35PLY4, or M50PLY4 peptide, and the residual binding was examined using anti-MD2 and anti-mouse-IgG-HRP antibodies diluted in 1% BSA as described in herein.

Sequence of MD2/TLR4 interaction (O00206 24-631): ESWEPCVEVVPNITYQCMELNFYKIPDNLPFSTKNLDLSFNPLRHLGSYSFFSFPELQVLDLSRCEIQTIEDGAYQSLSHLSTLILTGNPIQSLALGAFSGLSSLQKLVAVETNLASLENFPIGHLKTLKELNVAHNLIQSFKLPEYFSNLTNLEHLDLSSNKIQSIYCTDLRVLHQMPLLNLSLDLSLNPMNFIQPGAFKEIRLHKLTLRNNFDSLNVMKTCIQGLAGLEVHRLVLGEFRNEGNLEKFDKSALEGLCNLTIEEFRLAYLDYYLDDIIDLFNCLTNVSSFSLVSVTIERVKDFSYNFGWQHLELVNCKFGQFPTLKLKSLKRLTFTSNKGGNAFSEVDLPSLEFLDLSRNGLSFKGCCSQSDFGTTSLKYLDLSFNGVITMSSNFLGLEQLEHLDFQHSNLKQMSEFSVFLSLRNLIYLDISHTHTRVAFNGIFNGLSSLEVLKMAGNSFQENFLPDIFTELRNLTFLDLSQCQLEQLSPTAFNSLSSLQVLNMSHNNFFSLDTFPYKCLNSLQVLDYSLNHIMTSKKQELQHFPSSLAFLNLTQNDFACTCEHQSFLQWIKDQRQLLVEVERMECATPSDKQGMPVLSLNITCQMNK

In the case of “QDLTAHFTTSIPLKGNVRNLSVKIRECTGLAWEWWRTVYEKTDLPLVRKRTISIWGTTLYPQVEDKVEND [C70PLY4]”, the body weight [1] is reported as “significantly decreases”, the “neointima formation of aorta induced by STZ” value [2] is reported as “significantly attenuated the status of neointima formation” and the “PMNs migration, WT mice model (FIG. 10)” value (TLR4; PMNs from C3H/HeN mice, LPS 1 μg/ml, HUVEC monolayer Transwell) is reported as “significant inhibition of PMNs cell migration”. The “LPS induced PMN migration (FIGS. 11-12)” value (TLR4; WT mice model, LPS-induced) was “inhibitory effects”, the “concentration at which MD2 protein is completely competed away” value (MD2/TLR4 interaction; TLR4-coated well) was 6.25 µM and the “blocking capability for MD2 and TLR4 protein interaction (in words)” value (MD2/TLR4 interaction; peptide 50 μM to 3.05 nM) was “dose-dependent blocking capability”.
